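Grown in 96-well plates, cells were treated for 48 hours with each compound at five concentrations. Insufficient inhibition: endpoint recorded as highest concentration tested. GI50 is the concentration that inhibits growth by half.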 Active and inactive are the calls of the source. No stated cut-off is given here; in the data, active = GI50 up to about 1.1 µM and inactive = higher.
Assays:
Experiment in all cases: NCI anticancer screen, dose series, 48 h
A549 = tested on: A549
ACHN = tested on: ACHN
DU-145 = tested on: DU-145
HCT-15 = tested on: HCT-15
HOP-92 = tested on: HOP-92
Hs-578T = tested on: Hs-578T
IGROV-1 = tested on: IGROV-1
KM12 = tested on: KM12
LOX IMVI = tested on: LOX IMVI
M14 = tested on: M14
MOLT-4 = tested on: MOLT-4
NCI-H460 = tested on: NCI-H460
NCI/ADR-RES = tested on: NCI/ADR-RES
OVCAR-4 = tested on: OVCAR-4
OVCAR-8 = tested on: OVCAR-8
SF-295 = tested on: SF-295
SK-MEL-5 = tested on: SK-MEL-5
SN12C = tested on: SN12C
T47D = tested on: T47D
UO-31 = tested on: UO-31

| SMILES | GI50 (A549) | GI50 (ACHN) | GI50 (DU-145) | GI50 (HCT-15) | GI50 (HOP-92) | GI50 (Hs-578T) | GI50 (IGROV-1) | GI50 (KM12) | GI50 (LOX IMVI) | GI50 (M14) | GI50 (MOLT-4) | GI50 (NCI-H460) | GI50 (NCI/ADR-RES) | GI50 (OVCAR-4) | GI50 (OVCAR-8) | GI50 (SF-295) | GI50 (SK-MEL-5) | GI50 (SN12C) | GI50 (T47D) | GI50 (UO-31) |
| --- | --- | --- | --- | --- | --- | --- | --- | --- | --- | --- | --- | --- | --- | --- | --- | --- | --- | --- | --- | --- |
| CCN1C/C(=C\c2cc(OC)c(OC)c(OC)c2)C2=NN(c3ccccc3)C(c3cc(OC)c(OC)c(OC)c3)C2C1 (stereo not given) | 1.5 µM (inactive) | 9.33 µM (inactive) | 2.99 µM (inactive) | 5.58 µM | 2.92 µM (inactive) | 0.34 µM (active) | 6.43 µM (inactive) | 4.34 µM (inactive) | 2.08 µM (inactive) | 1.7 µM (inactive) | 5.05 µM (inactive) | 1.06 µM (active) | 1.43 µM (inactive) | 1.91 µM (inactive) | 1.61 µM (inactive) | 2.54 µM (inactive) | 3.74 µM (inactive) | 2.47 µM (inactive) | 3.53 µM (inactive) | 2.08 µM (inactive) |
| CC1CC[C@@]2(OC1)O[C@H]1C[C@H]3[C@@H]4CC[C@H]5C[C@@H](OC6OC(CO)C(OC7OC(CO)C(OC8OC(CO)C(O)C(OC9OC(C)C(OC%10OC(C)C(O)C(O)C%10O)C(O)C9O)C8OC8OCC(O)C(O)C8O)C(O)C7O)C(O)C6O)CC[C@]5(C)[C@H]4CC(=O)[C@]3(C)[C@H]1[C@@H]2C (stereo not given in full) | 23.2 µM (inactive) | 17.2 µM (inactive) | 19.9 µM (inactive) | 19.1 µM | 19 µM (inactive) | 24.2 µM (inactive) | 20.5 µM (inactive) | 18.2 µM (inactive) | 23.8 µM (inactive) | 20.8 µM (inactive) | 18.1 µM (inactive) | 17.8 µM (inactive) | 23.7 µM (inactive) | 16.1 µM (inactive) | 20.7 µM (inactive) | 23.9 µM (inactive) | 16.8 µM (inactive) | 20.9 µM (inactive) | 19.3 µM (inactive) | 19.2 µM (inactive) |
| COCc1nc(C#N)c(N)o1 | > 10 µM (inactive) | > 10 µM (inactive) | > 10 µM (inactive) | > 10 µM | > 10 µM (inactive) | > 10 µM (inactive) | > 10 µM (inactive) | > 10 µM (inactive) | > 10 µM (inactive) | > 10 µM (inactive) | > 10 µM (inactive) | > 10 µM (inactive) | > 10 µM (inactive) | > 10 µM (inactive) | > 10 µM (inactive) | > 10 µM (inactive) | > 10 µM (inactive) | > 10 µM (inactive) | > 10 µM (inactive) | > 10 µM (inactive) |
| c1cc(-c2ccc(-c3ccc(-c4ccc(-c5cccc6nsnc56)[nH]4)c4nsnc34)[nH]2)c2nsnc2c1 | > 100 µM (inactive) | > 100 µM (inactive) | > 100 µM (inactive) | > 100 µM | > 100 µM (inactive) | > 100 µM (inactive) | > 100 µM (inactive) | > 100 µM (inactive) | > 100 µM (inactive) | > 100 µM (inactive) | > 100 µM (inactive) | > 100 µM (inactive) | > 100 µM (inactive) | > 100 µM (inactive) | > 100 µM (inactive) | > 100 µM (inactive) | > 100 µM (inactive) | > 100 µM (inactive) | > 100 µM (inactive) | > 100 µM (inactive) |
| Cc1nn(C(=O)c2ccncc2)c2c1C(c1ccc([N+](=O)[O-])cc1)SC(=N)N2 (stereo not given) | > 100 µM (inactive) | > 100 µM (inactive) | > 100 µM (inactive) | > 100 µM | > 100 µM (inactive) | > 100 µM (inactive) | > 100 µM (inactive) | > 100 µM (inactive) | > 100 µM (inactive) | > 100 µM (inactive) | > 100 µM (inactive) | > 100 µM (inactive) | > 100 µM (inactive) | > 100 µM (inactive) | > 100 µM (inactive) | > 100 µM (inactive) | > 100 µM (inactive) | > 100 µM (inactive) | > 100 µM (inactive) | > 100 µM (inactive) |
| COc1ccc(C(c2c[nH]c3ccc(Br)cc23)c2c[nH]c3ccc(Br)cc23)cc1 | 0.346 µM (active) | 0.24 µM (active) | 0.364 µM (active) | 0.214 µM | 0.213 µM (active) | 0.575 µM (active) | 0.264 µM (active) | 0.197 µM (active) | 0.137 µM (active) | 0.237 µM (active) | 0.142 µM (active) | 0.228 µM (active) | 0.357 µM (active) | 0.267 µM (active) | 0.22 µM (active) | 0.313 µM (active) | 0.359 µM (active) | 0.31 µM (active) | 0.446 µM (active) | 0.394 µM (active) |
| O=C(CC(Cc1ccccc1)c1ccc(Oc2ccccc2)cc1)Nc1cccc(Cl)c1 (stereo not given) | 3.9 µM (inactive) | 3.65 µM (inactive) | 5.43 µM (inactive) | 3.64 µM | 1.9 µM (inactive) | 7.85 µM (inactive) | 2.9 µM (inactive) | 3.29 µM (inactive) | 3.73 µM (inactive) | 4.88 µM (inactive) | 3.69 µM (inactive) | 3.83 µM (inactive) | 3.62 µM (inactive) | 6.03 µM (inactive) | 3.96 µM (inactive) | 3.24 µM (inactive) | 11.3 µM (inactive) | 4.22 µM (inactive) | 2.92 µM (inactive) | 4.24 µM (inactive) |
| O=C1NC(=S)NC(=O)C1C(c1ccc([N+](=O)[O-])cc1)C1C(=O)NC(=S)NC1=O.c1ccncc1 | > 100 µM (inactive) | > 100 µM (inactive) | > 100 µM (inactive) | > 100 µM | > 100 µM (inactive) | > 100 µM (inactive) | > 100 µM (inactive) | > 100 µM (inactive) | > 100 µM (inactive) | > 100 µM (inactive) | > 100 µM (inactive) | > 100 µM (inactive) | > 100 µM (inactive) | > 100 µM (inactive) | > 100 µM (inactive) | > 100 µM (inactive) | > 100 µM (inactive) | > 100 µM (inactive) | > 100 µM (inactive) | > 100 µM (inactive) |
| COc1cc(O)c2c(=O)c(OC)c(-c3ccc4c(c3)OCO4)oc2c1OC | > 50 µM (inactive) | > 50 µM (inactive) | > 50 µM (inactive) | > 50 µM | 7.6 µM (inactive) | 28.1 µM (inactive) | > 50 µM (inactive) | > 50 µM (inactive) | > 50 µM (inactive) | > 50 µM (inactive) | > 50 µM (inactive) | > 50 µM (inactive) | > 50 µM (inactive) | > 50 µM (inactive) | 19.1 µM (inactive) | 29 µM (inactive) | 22.5 µM (inactive) | > 50 µM (inactive) | > 50 µM (inactive) | > 50 µM (inactive) |
| Fc1ccc2c(c1)nc1n2C(c2c(F)cccc2F)SC1 (stereo not given) | 48.5 µM (inactive) | > 100 µM (inactive) | > 100 µM (inactive) | 38.3 µM | 26.2 µM (inactive) | 47 µM (inactive) | 64.9 µM (inactive) | 18.2 µM (inactive) | 45.7 µM (inactive) | 49.8 µM (inactive) | 25.8 µM (inactive) | 37 µM (inactive) | 27.1 µM (inactive) | 48.2 µM (inactive) | 37.1 µM (inactive) | 30 µM (inactive) | 21.8 µM (inactive) | 70.8 µM (inactive) | 31 µM (inactive) | 25 µM (inactive) |
| Cc1ccc2nc3[nH]nc(N)c3nc2c1 | > 100 µM (inactive) | 99.3 µM (inactive) | > 100 µM (inactive) | 91 µM | 87.1 µM (inactive) | 89.3 µM (inactive) | 37 µM (inactive) | 54.6 µM (inactive) | > 100 µM (inactive) | > 100 µM (inactive) | 68.5 µM (inactive) | > 100 µM (inactive) | > 100 µM (inactive) | > 100 µM (inactive) | > 100 µM (inactive) | > 100 µM (inactive) | > 100 µM (inactive) | > 100 µM (inactive) | 65.3 µM (inactive) | 52 µM (inactive) |
| CC1=NN=C(N)NC1=CC(Sc1ccc(Cl)cc1)c1c(O)ccc2ccccc12 (stereo not given) | 28.9 µM (inactive) | 5.16 µM (inactive) | 16.1 µM (inactive) | 16.3 µM | 20.3 µM (inactive) | 5.25 µM (inactive) | 13 µM (inactive) | 14.5 µM (inactive) | 19.3 µM (inactive) | 11.9 µM (inactive) | 21.1 µM (inactive) | 17.4 µM (inactive) | 20.2 µM (inactive) | 16.8 µM (inactive) | 16.7 µM (inactive) | 4.21 µM (inactive) | 8.07 µM (inactive) | 19 µM (inactive) | 8.51 µM (inactive) | 6.07 µM (inactive) |
| CC(C)(C)[Si](C)(C)OCC1CCC(n2cnc3c(=O)[nH]cnc32)O1 (stereo not given) | > 100 µM (inactive) | > 100 µM (inactive) | > 100 µM (inactive) | > 100 µM | > 100 µM (inactive) | 58.2 µM (inactive) | > 100 µM (inactive) | > 100 µM (inactive) | > 100 µM (inactive) | > 100 µM (inactive) | 30.2 µM (inactive) | > 100 µM (inactive) | 45.6 µM (inactive) | > 100 µM (inactive) | 94.4 µM (inactive) | > 100 µM (inactive) | 32.5 µM (inactive) | > 100 µM (inactive) | 82.8 µM (inactive) | > 100 µM (inactive) |
| O=C(NC1CCN(Cc2ccccc2)CC1)c1cccc(I)c1 | 31.9 µM (inactive) | 52.4 µM (inactive) | 72.3 µM (inactive) | 17.5 µM | 22 µM (inactive) | 29 µM (inactive) | 39 µM (inactive) | 16.5 µM (inactive) | 19.6 µM (inactive) | 17.2 µM (inactive) | 13.9 µM (inactive) | 22 µM (inactive) | 31.8 µM (inactive) | 58.2 µM (inactive) | 39.2 µM (inactive) | 18.3 µM (inactive) | 16.9 µM (inactive) | 60.5 µM (inactive) | 24.1 µM (inactive) | 17 µM (inactive) |
